{"source": "patent US4282244A", "about": "“Optical isomers of 4-amino-N-(1-cyclohexyl-3-pyrrolidinyl)-N-methylbenzamide” (A. H. Robins Company, Inc., priority 1980, dated 1981)", "key": {"rat": {"tested_on": "rat", "experiment": "acute toxicity (LD50), rat", "assay_type": "in vivo", "conditions": "fumarate salt, expressed as free base", "procedure": "(§1) The acute toxicities of the ±-racemate, the (+)-isomer and the (-)-isomer were conducted with the fumarate salts and probit analysis (Finney, D. J., Statistical Methods in Biological Assay, Hafner Pub. Co., N.Y., 2nd. Ed., 1964) was employed for the statistical treatment of the mortality data."}, "[1]": {"tested_on": "Chlorpromazine-Induced Catalepsy", "experiment": "Effects on Chlorpromazine-Induced Catalepsy", "assay_type": "in vivo, rat", "conditions": "then (+)-isomer 25 mg/kg IP after one hour", "procedure": "(§2) (+)-4-Amino-N-(1-cyclohexyl-3-pyrrolidinyl)-N-methylbenzamide is useful in reducing the cataleptic side effects of known therapeutically effective drugs such as chlorpromazine [2-chloro-10-(3-dimethylaminopropyl)phenothiazine] and metoclopramide (N-diethylaminoethyl 2-methoxy-4-amino-5-chlorophenylcarboxamide). The effectiveness is shown in Tables IV and V. In each test the rat was administered a 100% effective cataleptic dose of the test drug followed one hour later by an effective dose of (+)-4-amino-N-(1-cyclohexyl-3-pyrrolidinyl)-N-methylbenzamide."}, "mouse": {"tested_on": "mouse", "experiment": "acute toxicity (LD50), mouse", "assay_type": "in vivo", "conditions": "fumarate salt, expressed as free base", "procedure": "as §1"}, "[2]": {"tested_on": "Metoclopramide-Induced Catalepsy", "experiment": "Effects on Metoclopramide-Induced Catalepsy", "assay_type": "in vivo, rat", "conditions": "Metoclopramide 40 mg/kg IP", "procedure": "as §2"}, "[3]": {"experiment": "cataleptic effects (Tedeschi et al.)", "assay_type": "in vivo, rat", "conditions": "in vivo, rat, fumarate salt, expressed as free base", "excerpt": "The procedure used for determing cataleptic effects of the fumarate salts was based on that of Tedeschi et al., Arch. Int. Pharmacodyn."}}, "note": "Counter-ions that a name gives are not always drawn."}
{"smiles": "CN(C(=O)c1ccc(N)cc1)C1CCN(C2CCCCC2)C1", "note": "(single isomer, unassigned; (+)) [(+)-isomer, (+)-4-Amino-N-(1-cyclohexyl-3-pyrrolidinyl)-N-methyl benzamide Fumarate]", "values": [{"measurement": "LD50 (95% Confidence Limits)", "setting": "rat; I.P.", "value": "147 (134-222) mg/kg"}, {"measurement": "LD50 (95% Confidence Limits)", "setting": "rat; P.O.", "value": "499 (322-593) mg/kg"}, {"measurement": "Percent of Rats Cataleptic", "setting": "[1]; Chlorpromazine 4 mg/kg IP, 0.5 h after initial treatment", "value": 100, "unit": "%"}, {"measurement": "Percent of Rats Cataleptic", "setting": "[1]; Chlorpromazine 4 mg/kg IP, 1.0 h after initial treatment", "value": 100, "unit": "%"}, {"measurement": "Percent of Rats Cataleptic", "setting": "[1]; Chlorpromazine 4 mg/kg IP, 1.5 h after initial treatment", "value": 50, "unit": "%"}, {"measurement": "Percent of Rats Cataleptic", "setting": "[1]; Chlorpromazine 4 mg/kg IP, 2.0 h after initial treatment", "value": 33, "unit": "%"}, {"measurement": "Percent of Rats Cataleptic", "setting": "[1]; Chlorpromazine 4 mg/kg IP, 3.0 h after initial treatment", "value": 33, "unit": "%"}, {"measurement": "Percent of Rats Cataleptic", "setting": "[1]; Chlorpromazine 4 mg/kg IP, 4.0 h after initial treatment", "value": 50, "unit": "%"}, {"measurement": "Percent of Rats Cataleptic", "setting": "[1]; Chlorpromazine 4 mg/kg IP, 5.0 h after initial treatment", "value": 100, "unit": "%"}, {"measurement": "Percent of Rats Cataleptic", "setting": "[1]; Chlorpromazine 4 mg/kg IP, 6.0 h after initial treatment", "value": 67, "unit": "%"}, {"measurement": "Percent of Rats Cataleptic", "setting": "[1]; saline 10 ml/kg IP, 0.5 h after initial treatment", "value": 0, "unit": "%"}, {"measurement": "Percent of Rats Cataleptic", "setting": "[1]; saline 10 ml/kg IP, 1.0 h after initial treatment", "value": 0, "unit": "%"}, {"measurement": "Percent of Rats Cataleptic", "setting": "[1]; saline 10 ml/kg IP, 1.5 h after initial treatment", "value": 0, "unit": "%"}, {"measurement": "Percent of Rats Cataleptic", "setting": "[1]; saline 10 ml/kg IP, 2.0 h after initial treatment", "value": 0, "unit": "%"}, {"measurement": "Percent of Rats Cataleptic", "setting": "[1]; saline 10 ml/kg IP, 3.0 h after initial treatment", "value": 0, "unit": "%"}, {"measurement": "Percent of Rats Cataleptic", "setting": "[1]; saline 10 ml/kg IP, 4.0 h after initial treatment", "value": 17, "unit": "%"}, {"measurement": "Percent of Rats Cataleptic", "setting": "[1]; saline 10 ml/kg IP, 5.0 h after initial treatment", "value": 17, "unit": "%"}, {"measurement": "Percent of Rats Cataleptic", "setting": "[1]; saline 10 ml/kg IP, 6.0 h after initial treatment", "value": 0, "unit": "%"}, {"measurement": "LD50 (95% Confidence Limits)", "setting": "mouse; I.P.", "value": "126 (115-139) mg/kg"}, {"measurement": "LD50 (95% Confidence Limits)", "setting": "mouse; P.O.", "value": "267 (233-313) mg/kg"}, {"measurement": "Percent of Rats Cataleptic", "setting": "[2]; then (+)-isomer 12.5 mg/kg IP after one hour, 0.5 h after initial treatment", "value": 100, "unit": "%"}, {"measurement": "Percent of Rats Cataleptic", "setting": "[2]; then (+)-isomer 12.5 mg/kg IP after one hour, 1.0 h after initial treatment", "value": 100, "unit": "%"}, {"measurement": "Percent of Rats Cataleptic", "setting": "[2]; then (+)-isomer 12.5 mg/kg IP after one hour, 1.5 h after initial treatment", "value": 100, "unit": "%"}, {"measurement": "Percent of Rats Cataleptic", "setting": "[2]; then (+)-isomer 12.5 mg/kg IP after one hour, 2.0 h after initial treatment", "value": 88, "unit": "%"}, {"measurement": "Percent of Rats Cataleptic", "setting": "[2]; then (+)-isomer 12.5 mg/kg IP after one hour, 3.0 h after initial treatment", "value": 88, "unit": "%"}, {"measurement": "Percent of Rats Cataleptic", "setting": "[2]; then (+)-isomer 12.5 mg/kg IP after one hour, 4.0 h after initial treatment", "value": 100, "unit": "%"}, {"measurement": "Percent of Rats Cataleptic", "setting": "[2]; then (+)-isomer 12.5 mg/kg IP after one hour, 5.0 h after initial treatment", "value": 100, "unit": "%"}, {"measurement": "Percent of Rats Cataleptic", "setting": "[2]; then (+)-isomer 12.5 mg/kg IP after one hour, 6.0 h after initial treatment", "value": 100, "unit": "%"}, {"measurement": "Percent of Rats Cataleptic", "setting": "[2]; then (+)-isomer 12.5 mg/kg IP after one hour, 7.0 h after initial treatment", "value": 100, "unit": "%"}, {"measurement": "Percent of Rats Cataleptic", "setting": "[2]; then (+)-isomer 25 mg/kg IP after one hour, 0.5 h after initial treatment", "value": 100, "unit": "%"}, {"measurement": "Percent of Rats Cataleptic", "setting": "[2]; then (+)-isomer 25 mg/kg IP after one hour, 1.0 h after initial treatment", "value": 100, "unit": "%"}, {"measurement": "Percent of Rats Cataleptic", "setting": "[2]; then (+)-isomer 25 mg/kg IP after one hour, 1.5 h after initial treatment", "value": 100, "unit": "%"}, {"measurement": "Percent of Rats Cataleptic", "setting": "[2]; then (+)-isomer 25 mg/kg IP after one hour, 2.0 h after initial treatment", "value": 75, "unit": "%"}, {"measurement": "Percent of Rats Cataleptic", "setting": "[2]; then (+)-isomer 25 mg/kg IP after one hour, 3.0 h after initial treatment", "value": 38, "unit": "%"}, {"measurement": "Percent of Rats Cataleptic", "setting": "[2]; then (+)-isomer 25 mg/kg IP after one hour, 4.0 h after initial treatment", "value": 75, "unit": "%"}, {"measurement": "Percent of Rats Cataleptic", "setting": "[2]; then (+)-isomer 25 mg/kg IP after one hour, 5.0 h after initial treatment", "value": 88, "unit": "%"}, {"measurement": "Percent of Rats Cataleptic", "setting": "[2]; then (+)-isomer 25 mg/kg IP after one hour, 6.0 h after initial treatment", "value": 88, "unit": "%"}, {"measurement": "Percent of Rats Cataleptic", "setting": "[2]; then (+)-isomer 40 mg/kg IP after one hour, 0.5 h after initial treatment", "value": 88, "unit": "%"}, {"measurement": "Percent of Rats Cataleptic", "setting": "[2]; then (+)-isomer 40 mg/kg IP after one hour, 1.0 h after initial treatment", "value": 88, "unit": "%"}, {"measurement": "Percent of Rats Cataleptic", "setting": "[2]; then (+)-isomer 40 mg/kg IP after one hour, 1.5 h after initial treatment", "value": 25, "unit": "%"}, {"measurement": "Percent of Rats Cataleptic", "setting": "[2]; then (+)-isomer 40 mg/kg IP after one hour, 2.0 h after initial treatment", "value": 13, "unit": "%"}, {"measurement": "Percent of Rats Cataleptic", "setting": "[2]; then (+)-isomer 40 mg/kg IP after one hour, 3.0 h after initial treatment", "value": 38, "unit": "%"}, {"measurement": "Percent of Rats Cataleptic", "setting": "[2]; then (+)-isomer 40 mg/kg IP after one hour, 4.0 h after initial treatment", "value": 38, "unit": "%"}, {"measurement": "Percent of Rats Cataleptic", "setting": "[2]; then (+)-isomer 40 mg/kg IP after one hour, 5.0 h after initial treatment", "value": 88, "unit": "%"}, {"measurement": "Percent of Rats Cataleptic", "setting": "[2]; then (+)-isomer 40 mg/kg IP after one hour, 6.0 h after initial treatment", "value": 88, "unit": "%"}, {"measurement": "Percent of Rats Cataleptic", "setting": "[2]; then (+)-isomer 40 mg/kg IP after one hour, 7.0 h after initial treatment", "value": 88, "unit": "%"}, {"measurement": "Percent of Rats Cataleptic", "setting": "[2]; then (+)-isomer 50 mg/kg IP after one hour, 0.5 h after initial treatment", "value": 100, "unit": "%"}, {"measurement": "Percent of Rats Cataleptic", "setting": "[2]; then (+)-isomer 50 mg/kg IP after one hour, 1.0 h after initial treatment", "value": 100, "unit": "%"}, {"measurement": "Percent of Rats Cataleptic", "setting": "[2]; then (+)-isomer 50 mg/kg IP after one hour, 1.5 h after initial treatment", "value": 13, "unit": "%"}, {"measurement": "Percent of Rats Cataleptic", "setting": "[2]; then (+)-isomer 50 mg/kg IP after one hour, 2.0 h after initial treatment", "value": 13, "unit": "%"}, {"measurement": "Percent of Rats Cataleptic", "setting": "[2]; then (+)-isomer 50 mg/kg IP after one hour, 3.0 h after initial treatment", "value": 25, "unit": "%"}, {"measurement": "Percent of Rats Cataleptic", "setting": "[2]; then (+)-isomer 50 mg/kg IP after one hour, 4.0 h after initial treatment", "value": 25, "unit": "%"}, {"measurement": "Percent of Rats Cataleptic", "setting": "[2]; then (+)-isomer 50 mg/kg IP after one hour, 5.0 h after initial treatment", "value": 75, "unit": "%"}, {"measurement": "Percent of Rats Cataleptic", "setting": "[2]; then (+)-isomer 50 mg/kg IP after one hour, 6.0 h after initial treatment", "value": 88, "unit": "%"}, {"measurement": "Percent of Rats Cataleptic", "setting": "[2]; then (+)-isomer 50 mg/kg IP after one hour, 7.0 h after initial treatment", "value": 75, "unit": "%"}, {"measurement": "NOAEL", "setting": "[3]; IP", "value": 100, "unit": "mg/kg"}, {"measurement": "NOAEL", "setting": "[3]; PO", "value": 200, "unit": "mg/kg"}]}
